Laboratory results reported in paper PMC9916762, “Impact of Hydrophobic Chains in Five-Coordinate Glucoconjugate Pt(II) Anticancer Agents” (International Journal of Molecular Sciences, 2023).

Experiments:
[1] = Octanol/water partition coefficient, shake-flask method; assay type: physicochemical; details: n-octanol/water, UV-vis
Experimental: The partition coefficients in octanol/water (log Po/w) were measured using the shake-flask method, by calculating the equilibrium concentrations through UV spectra (Table 1).
Partition coefficients for the platinum complexes were determined in triplicate in an n-octanol/water system, with different ratios (1:1, 1:2, 2:1). Each complex was dissolved in n-octanol at the concentrations 16.7, 12.5, or 10 μM and subsequently, an appropriate volume of water was added. The mixtures were shaken mechanically for 1 h to ensure the distribution between the two solvent phases. The samples were then centrifuged (13,000 rpm, 10 min). Afterwards, the platinum concentration was determined in the octanol phases by UV–vis spectrophotometry, after collecting a calibration line for each complex. Results are expressed as the logarithm of the partition coefficient of octanol/water (log Po/w), which is the logarithm of the concentration of platinum in the n-octanol divided by its concentration in the aqueous layer.

[2] = test system: immortalized human keratinocytes (HaCaT); assay: MTT cell viability assay, HaCaT; assay type: cell-based; details: 48 h incubation
Description: The immortalized human keratinocytes (HaCaT) were from Innoprot.

Calf thymus DNA = assay: Ethidium bromide displacement DNA binding assay; details: 0.05 M ammonium acetate pH 7.5, titration with complex
Description: The interaction of Pt-based drugs with biological macromolecules deeply affects their biological activity. DNA represents a target for this kind of metallodrug, while proteins are considered both as carriers and targets. To obtain information on the reactivity of the synthesised Pt compounds with DNA, fluorescence intercalation displacement assays have been performed using ethidium bromide (EB) as the DNA intercalator. When bound to DNA, EB has an emission fluorescence of significant intensity. On the other hand, when it is displaced by a competitive DNA-binding molecule, it undergoes quenching by water molecules. Thus, if a molecule binds DNA by displacing EB, a significant reduction in the fluorescence intensity of the EB-DNA complex will be observed.
The ethidium bromide (EB) displacement assay was performed on a HORIBA FluoroMax-4 spectrofluorometer equipped with a thermostat bath. Calf thymus DNA was incubated with EB in 0.05 M of ammonium acetate at pH 7.5, at a DNA:EB molar ratio of 1:5 for 30 min in the dark at room temperature. Then, the fluorescence quenching of this complex was evaluated by adding to it increasing amounts of Pt compounds dissolved in DMSO (20 mM). Samples were equilibrated for 5 min before collecting each spectrum. […]

SVT2 cells = assay: Western blot of pro-caspases 9 and 3, SVT2; assay type: cell-based, murine; details: SVT2, 9.8 μM, 48 h
Experimental: In particular, SVT2 and A431 were incubated for 48 h with 1-Me,Me and 1-Oct,Me, using the IC50 value concentrations. At the end of incubation, uptake and cell death mechanisms were evaluated. […] Finally, apoptosis was investigated by Western blot analyses using specific antibodies against pro-caspases 9 and 3.
The SVT2 were seeded on six-well plates at a density of 2.5 × 10^5 cells/well, whereas A431 was seeded at a density of 3 × 10^5 cells/well. After 24 h, cells were treated with 9.8 μM of 1-Me,Me or 2.3 μM 1-Oct,Me. After 48 h of incubation, Western blot analyses were performed by using pro-caspase 9 (Cell Signaling Technology, Danvers, MA, USA) and pro-caspase 3 (Abcam, Cambridge, MA, USA) antibodies, as reported by Del Giudice et al. Protein intensity levels were normalized using β-actin (Sigma-Aldrich, St. Louis, MO, USA). The chemiluminescence detection system was purchased from Bio-Rad (Hercules, CA, USA).

[3] = molecular target: T1, hen egg white lysozyme (HEWL) (Gallus gallus, UniProt P00698); assay: X-ray structure of adducts with HEWL; assay type: binding
T1 construct: model protein hen egg white lysozyme (HEWL); purchased Merck KGaA (Darmstadt, Germany); host or cells: hen egg white (natural source, by the protein's name)
Experimental: To obtain information on the reactivity of 1-Me,Me with proteins, the X-ray structure of the adducts that the Pt compound forms with HEWL was solved.
The structures were obtained using crystals grown in 20% ethylene glycol, 0.1 M sodium acetate buffer at pH 4.0, and 0.6 M sodium nitrate (Structure A, Figure 8A) and in 2.0 M sodium formate and 0.1 M Hepes at pH 7.5 (Structure B, Figure 8B), refined at 1.25 and 1.33 Å resolutions, respectively (Table S2).
HEWL crystals were grown using the hanging drop vapour diffusion method and the following reservoirs: • (a) 20% ethylene glycol, 0.10 M sodium acetate at pH 4.0, and 0.60 M sodium nitrate • (b) 2.0 M sodium formate and 0.1 M HEPES at pH 7.5.
The crystals of the protein adduct with 1-Me,Me were obtained by the soaking procedure. The HEWL crystals were soaked in a solution consisting of 83% reservoir, 17% DMSO, and 3.3 mM 1-Me,Me.
The structures of the Pt–HEWL adducts were solved by the molecular replacement method, using the HEWL coordinates deposited in the PDB under the accession code 193L [40] as a model. Refinements were carried out with a CCP4 REFMAC5 [46], and the model building, adjustments, and inspection of the electron density maps was manually carried out using WinCoot.
The Pt binding sites were unambiguously identified by comparing 2Fo–Fc, residual Fo–Fc, and anomalous difference electron density maps. […]

Platinum(1+), (2,9-dimethyl-1,10-phenanthroline- N1,N10)(η2-ethene)methyl[1,3-dihydro-1,3-dimethyl-4-[1-[2,3,4,6-tetrakis-O-(acetyl)-β-D-glucopyranosyl]-1H-1,2,3-triazol-4-yl]-2H-imidazol-2-ylidene], 1,1,1-trifluoromethanesulfonate [1-Me,Me]
Log Po/w [1]: 0.42 | IC50 [2]: 8.4 ± 1.7 µM | fluorescence intensity of EB-DNA complex (Calf thymus DNA): significant reduction in fluorescence intensity | pro-caspases 9 and 3 levels (SVT2 cells): significant decrease in pro-caspases 9 and 3 levels | Pt binding sites on HEWL ([3]; Structure A: 20% ethylene glycol, 0.1 M sodium acetate pH 4.0, 0.6 M sodium nitrate): two Pt binding sites were observed | Pt binding sites on HEWL ([3]; Structure B: 2.0 M sodium formate, 0.1 M Hepes pH 7.5): a single Pt binding site was observed
